# Test results published in patent US20240252508A1, “Novel glucose uptake inhibitors for use in the treatment of cancer” (NOVELYEAST BV, priority 2021, published 2024).
# How the values were obtained:
# human GLUT1^V69M = target: T1, human GLUT1^V69M (Homo sapiens, UniProt P11166, V69M); assay: Glucose uptake by GLUT1^V69M expressed in hxt^0 gal2Δ (RE700A) yeast; format: cell-based; conditions: 2.5 mM glucose
# T1 construct: HA (C); expressed in transfected cells; host or cells: S. cerevisiae RE700A (hxt0 gal2Δ), plasmid pFL38Kan-GLUT1^V69M (TEF1 promoter, low-copy)
# T1 sequence (P11166 1-492 V69M): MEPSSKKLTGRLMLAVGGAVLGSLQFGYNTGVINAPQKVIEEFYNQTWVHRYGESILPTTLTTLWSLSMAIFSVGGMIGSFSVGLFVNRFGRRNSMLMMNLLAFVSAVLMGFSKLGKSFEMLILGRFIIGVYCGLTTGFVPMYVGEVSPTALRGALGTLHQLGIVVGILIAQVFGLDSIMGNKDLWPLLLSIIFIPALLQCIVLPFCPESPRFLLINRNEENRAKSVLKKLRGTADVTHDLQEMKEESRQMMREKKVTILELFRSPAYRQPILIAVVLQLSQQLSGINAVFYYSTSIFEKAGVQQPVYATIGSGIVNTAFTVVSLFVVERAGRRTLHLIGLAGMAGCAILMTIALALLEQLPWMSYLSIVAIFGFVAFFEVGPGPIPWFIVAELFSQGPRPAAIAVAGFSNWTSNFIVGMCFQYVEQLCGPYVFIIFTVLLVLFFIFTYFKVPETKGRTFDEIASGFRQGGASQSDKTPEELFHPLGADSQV
# Excerpt: (§1) To assess whether WBC-A could inhibit glucose transport activity of the GLUT carriers, we expressed human GLUT1^V69M and GLUT4^V85M in a hxt^0 gal2Δ (RE700A) and hxt^0 erg4Δ (EBY.VW4000) strain, respectively. These strains are both deficient in glucose uptake due to absence of all active glucose transporters. For functional GLUT expression in yeast, specific mutations had to be introduced in both sequences, whereas for GLUT4, an additional ERG4 gene deletion was required^64,65,66.
# (§2) Zero-trans uptake of radioactively labeled [U-^14C]glucose, [U-^14C]fructose or [U-^14C]galactose by S. cerevisiae cells was determined in accordance with previous studies^44,66. Cells were grown on different carbon sources depending on the experiment. For measuring glucose uptake activity in the tps1Δ and tps1Δ hxtA strains (FIG. 1b,c), cells were grown on YP medium containing 3% glycerol (measurement of 10s). Typically, for compound characterization and kinetic studies in wild type and tps1Δ strains, cells were (pre)grown on Complete Synthetic medium supplemented with 2% galactose (measurement of 10s). […] The loaded filter was transferred to a scintillation vial containing 3 mL liquid scintillation cocktail (Ultima-Flo M, Perkin Elmer) and counted using the Hidex 300 SL. […]
# yeast Hxt7 = target: T2, yeast Hxt7 (Saccharomyces cerevisiae, UniProt P39004); assay: Glucose uptake by Hxt7 expressed in hxt^0 erg4Δ (EBY.VW4000) yeast; format: cell-based, S. cerevisiae
# T2 construct: HA (C); expressed in transfected cells; host or cells: S. cerevisiae RE700A (hxt0 gal2Δ) in A5; EBY.VW4000 (hxt0 erg4Δ) in A7; plasmid 'pHXT7'
# T2 sequence (P39004 whole entry): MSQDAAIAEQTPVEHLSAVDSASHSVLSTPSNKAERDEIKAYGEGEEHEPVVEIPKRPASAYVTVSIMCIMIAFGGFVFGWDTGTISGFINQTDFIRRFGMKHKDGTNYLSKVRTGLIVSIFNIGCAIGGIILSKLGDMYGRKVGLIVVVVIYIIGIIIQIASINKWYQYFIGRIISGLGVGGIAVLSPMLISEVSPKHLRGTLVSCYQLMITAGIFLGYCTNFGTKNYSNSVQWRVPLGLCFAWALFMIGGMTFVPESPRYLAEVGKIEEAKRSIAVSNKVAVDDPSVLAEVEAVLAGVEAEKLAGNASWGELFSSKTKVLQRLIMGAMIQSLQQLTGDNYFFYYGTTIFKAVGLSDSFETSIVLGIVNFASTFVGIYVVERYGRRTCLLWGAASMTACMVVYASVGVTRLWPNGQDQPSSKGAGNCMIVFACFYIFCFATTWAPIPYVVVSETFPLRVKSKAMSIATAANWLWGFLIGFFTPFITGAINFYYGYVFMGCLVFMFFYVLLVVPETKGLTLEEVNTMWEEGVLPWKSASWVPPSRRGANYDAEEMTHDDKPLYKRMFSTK
# Excerpt: as §1, §2
# [1] = test system: A549 lung adenocarcinoma cells; assay: A549 cell proliferation / growth inhibition; format: cell-based, human
# Outline: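 A549 growth screened in RPMI with 1 mM glucose, compounds at 50 μM; cell number from counts of Hoechst-stained nuclei after 3 days. Growth curves also followed by IncuCyte phase-contrast confluency over 3–5 days (1000–1500 cells/well), DMSO ≤0.1%, ≥4 technical repeats.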
# wild type yeast cells = assay: General toxicity: growth of wild type yeast cells; format: cell-based, S. cerevisiae; conditions: 100 μM
# Experimental: Maximal growth rates were determined after 2 days of growth in Complete Synthetic liquid medium.
# Growth curves were made by measuring OD595 in a 96-well plate using the Multiskan™ FC Microplate Photometer (Thermo Fisher Scientific). Typically, for tps1Δ rescue experiments (FIG. 2b-e; FIG. 4a), cells were (pre)grown in Complete Synthetic medium containing 2% galactose.
# Compounds were always added 10 min prior to glucose addition to ensure maximal interaction between the cells and compounds. Cells originating from the preculture were harvested, washed in medium without sugar, after which they were resuspended to an OD of 0.1 in 200 μL of the appropriate medium. At least three technical replicates were included per condition. OD595 was measured at 30° C. every 30 min with a 10-min shaking interval.
smiles,measurement,setting,value
Cc1nc(Sc2nnc3n2CCCCC3)c2c(-c3cccs3)csc2n1 [WBC-A],Inhibition of glucose uptake by GLUT1^V69M at 25 μM,"human GLUT1^V69M; 25 μM, hxt^0 gal2Δ strain",inhibited
same,IC50,human GLUT1^V69M; hxt^0 gal2Δ (RE700A),24 µM
same,IC50,yeast Hxt7,12.9 µM
same,Potency in reducing maximal growth rate of A549 cells,"[1]; 1 mM glucose, 6.25-50 μM",intermediate potency
same,Proliferation of A549 cells in RPMI medium with 1 mM or 5 mM glucose,[1]; 12.5-50 μM WBC-A,dose-dependent inhibition of growth
same,Growth of wild type yeast cells on glucose (2%) and on 3% glycerol+2% ethanol,wild type yeast cells,did not cause any growth inhibition at all
